Assay results from the NIST ThermoML archive (doi:10.1016/j.jct.2005.10.019).
Numbers after ± are expanded uncertainties.

Tests used:
[1] = excess molar enthalpy (molar enthalpy of mixing); xn = mol fraction of the nth substance listed; settings: 298.15 K, 101 kPa, Liquid
[2] = 298.15 K; 101.33 kPa; Liquid

SMILES: C[C@H](O)c1ccccc1 [(S)-(-)-1-phenylethanol] + C[C@@H](O)c1ccccc1
- excess molar enthalpy ([1]; x1 = 0.07558): 0.000755 ± 0.000131 kcal/mol
- excess molar enthalpy ([1]; x1 = 0.09137): 0.000905 ± 0.000134 kcal/mol
- excess molar enthalpy ([1]; x1 = 0.1405): 0.00127 ± 0.000134 kcal/mol
- excess molar enthalpy ([1]; x1 = 0.1675): 0.0015 ± 0.000136 kcal/mol
- excess molar enthalpy ([1]; x1 = 0.197): 0.00168 ± 0.000136 kcal/mol
- excess molar enthalpy ([1]; x1 = 0.2318): 0.00184 ± 0.000136 kcal/mol
- excess molar enthalpy ([1]; x1 = 0.2464): 0.00196 ± 0.000139 kcal/mol
- excess molar enthalpy ([1]; x1 = 0.2869): 0.00213 ± 0.000139 kcal/mol
- excess molar enthalpy ([1]; x1 = 0.2902): 0.00216 ± 0.000139 kcal/mol
- excess molar enthalpy ([1]; x1 = 0.3291): 0.0023 ± 0.000139 kcal/mol
- excess molar enthalpy ([1]; x1 = 0.3346): 0.0023 ± 0.000139 kcal/mol
- excess molar enthalpy ([1]; x1 = 0.364): 0.00241 ± 0.000141 kcal/mol
- excess molar enthalpy ([1]; x1 = 0.3763): 0.0024 ± 0.000141 kcal/mol
- excess molar enthalpy ([1]; x1 = 0.3954): 0.00247 ± 0.000141 kcal/mol
- excess molar enthalpy ([1]; x1 = 0.4131): 0.00246 ± 0.000141 kcal/mol
- excess molar enthalpy ([1]; x1 = 0.4239): 0.00251 ± 0.000141 kcal/mol
- excess molar enthalpy ([1]; x1 = 0.4458): 0.0025 ± 0.000141 kcal/mol
- excess molar enthalpy ([1]; x1 = 0.4498): 0.00253 ± 0.000141 kcal/mol
- excess molar enthalpy ([1]; x1 = 0.4751): 0.00252 ± 0.000141 kcal/mol
- excess molar enthalpy ([1]; x1 = 0.4753): 0.00249 ± 0.000141 kcal/mol
- excess molar enthalpy ([1]; x1 = 0.497): 0.00252 ± 0.000141 kcal/mol
- excess molar enthalpy ([1]; x1 = 0.5014): 0.00252 ± 0.000141 kcal/mol
- excess molar enthalpy ([1]; x1 = 0.5208): 0.00254 ± 0.000141 kcal/mol
- excess molar enthalpy ([1]; x1 = 0.5252): 0.00251 ± 0.000141 kcal/mol
- excess molar enthalpy ([1]; x1 = 0.5469): 0.0025 ± 0.000141 kcal/mol
- excess molar enthalpy ([1]; x1 = 0.547): 0.00253 ± 0.000141 kcal/mol
- excess molar enthalpy ([1]; x1 = 0.5668): 0.00252 ± 0.000141 kcal/mol
- excess molar enthalpy ([1]; x1 = 0.576): 0.00251 ± 0.000141 kcal/mol
- excess molar enthalpy ([1]; x1 = 0.5993): 0.00251 ± 0.000141 kcal/mol
- excess molar enthalpy ([1]; x1 = 0.6083): 0.00247 ± 0.000141 kcal/mol
- excess molar enthalpy ([1]; x1 = 0.6357): 0.00241 ± 0.000141 kcal/mol
- excess molar enthalpy ([1]; x1 = 0.6443): 0.00238 ± 0.000141 kcal/mol
- excess molar enthalpy ([1]; x1 = 0.6768): 0.00229 ± 0.000139 kcal/mol
- excess molar enthalpy ([1]; x1 = 0.6849): 0.00227 ± 0.000139 kcal/mol
- excess molar enthalpy ([1]; x1 = 0.7235): 0.00214 ± 0.000139 kcal/mol
- excess molar enthalpy ([1]; x1 = 0.731): 0.00209 ± 0.000139 kcal/mol
- excess molar enthalpy ([1]; x1 = 0.7773): 0.0019 ± 0.000139 kcal/mol
- excess molar enthalpy ([1]; x1 = 0.7837): 0.00183 ± 0.000136 kcal/mol
- excess molar enthalpy ([1]; x1 = 0.8396): 0.00144 ± 0.000136 kcal/mol
- excess molar enthalpy ([1]; x1 = 0.8446): 0.00149 ± 0.000136 kcal/mol
- excess molar enthalpy ([1]; x1 = 0.9128): 0.000857 ± 0.000134 kcal/mol
- excess molar enthalpy ([1]; x1 = 0.9158): 0.000837 ± 0.000134 kcal/mol

SMILES: C[C@H](N)c1ccccc1 [(S)-(-)-αmethylbenzylamine]
- mass density [2]: 965.49 ± 0.16 kg/m3

SMILES: C[C@H](N)c1ccccc1 [(S)-(-)-αmethylbenzylamine] + C[C@@H](N)c1ccccc1
- excess molar enthalpy ([1]; x1 = 0.0173): 0.000147 ± 0.00012 kcal/mol
- excess molar enthalpy ([1]; x1 = 0.03401): 0.000288 ± 0.000122 kcal/mol
- excess molar enthalpy ([1]; x1 = 0.05015): 0.000417 ± 0.000122 kcal/mol
- excess molar enthalpy ([1]; x1 = 0.06577): 0.000537 ± 0.000122 kcal/mol
- excess molar enthalpy ([1]; x1 = 0.08089): 0.000641 ± 0.000122 kcal/mol
- excess molar enthalpy ([1]; x1 = 0.09552): 0.000748 ± 0.000124 kcal/mol
- excess molar enthalpy ([1]; x1 = 0.1097): 0.000848 ± 0.000124 kcal/mol
- excess molar enthalpy ([1]; x1 = 0.1234): 0.000939 ± 0.000124 kcal/mol
- excess molar enthalpy ([1]; x1 = 0.1368): 0.00102 ± 0.000124 kcal/mol
- excess molar enthalpy ([1]; x1 = 0.1408): 0.00107 ± 0.000124 kcal/mol
- excess molar enthalpy ([1]; x1 = 0.1497): 0.0011 ± 0.000124 kcal/mol
- excess molar enthalpy ([1]; x1 = 0.1622): 0.00119 ± 0.000124 kcal/mol
- excess molar enthalpy ([1]; x1 = 0.1744): 0.00126 ± 0.000127 kcal/mol
- excess molar enthalpy ([1]; x1 = 0.1862): 0.00133 ± 0.000127 kcal/mol
- excess molar enthalpy ([1]; x1 = 0.2469): 0.00163 ± 0.000127 kcal/mol
- excess molar enthalpy ([1]; x1 = 0.3297): 0.00195 ± 0.000129 kcal/mol
- excess molar enthalpy ([1]; x1 = 0.384): 0.00208 ± 0.000129 kcal/mol
- excess molar enthalpy ([1]; x1 = 0.4161): 0.00213 ± 0.000131 kcal/mol
- excess molar enthalpy ([1]; x1 = 0.4539): 0.00216 ± 0.000131 kcal/mol
- excess molar enthalpy ([1]; x1 = 0.555): 0.00216 ± 0.000131 kcal/mol
- excess molar enthalpy ([1]; x1 = 0.6244): 0.00208 ± 0.000129 kcal/mol
- excess molar enthalpy ([1]; x1 = 0.7138): 0.00181 ± 0.000129 kcal/mol
- excess molar enthalpy ([1]; x1 = 0.8027): 0.00132 ± 0.000127 kcal/mol
- excess molar enthalpy ([1]; x1 = 0.815): 0.00125 ± 0.000127 kcal/mol
- excess molar enthalpy ([1]; x1 = 0.841): 0.0011 ± 0.000124 kcal/mol
- excess molar enthalpy ([1]; x1 = 0.8546): 0.00102 ± 0.000124 kcal/mol
- excess molar enthalpy ([1]; x1 = 0.8686): 0.000935 ± 0.000124 kcal/mol
- excess molar enthalpy ([1]; x1 = 0.8831): 0.00084 ± 0.000124 kcal/mol
- excess molar enthalpy ([1]; x1 = 0.8981): 0.00074 ± 0.000124 kcal/mol
- excess molar enthalpy ([1]; x1 = 0.9136): 0.000631 ± 0.000122 kcal/mol
- excess molar enthalpy ([1]; x1 = 0.9297): 0.000527 ± 0.000122 kcal/mol
- excess molar enthalpy ([1]; x1 = 0.9463): 0.000409 ± 0.000122 kcal/mol
- excess molar enthalpy ([1]; x1 = 0.9636): 0.000273 ± 0.000122 kcal/mol
- excess molar enthalpy ([1]; x1 = 0.9814): 0.000116 ± 0.00012 kcal/mol

SMILES: C[C@H](NCc1ccccc1)c1ccccc1 [(S)-N-benzyl-1-phenylethylamine]
- mass density [2]: 1007.9 ± 0.2 kg/m3

SMILES: C[C@H](NCc1ccccc1)c1ccccc1 [(S)-N-benzyl-1-phenylethylamine] + C[C@@H](NCc1ccccc1)c1ccccc1
- excess molar enthalpy ([1]; x1 = 0.05697): -0.000214 ± 0.000122 kcal/mol
- excess molar enthalpy ([1]; x1 = 0.09481): -0.00033 ± 0.000122 kcal/mol
- excess molar enthalpy ([1]; x1 = 0.1905): -0.000609 ± 0.000122 kcal/mol
- excess molar enthalpy ([1]; x1 = 0.2961): -0.000821 ± 0.000124 kcal/mol
- excess molar enthalpy ([1]; x1 = 0.4009): -0.000962 ± 0.000124 kcal/mol
- excess molar enthalpy ([1]; x1 = 0.5331): -0.00102 ± 0.000124 kcal/mol
- excess molar enthalpy ([1]; x1 = 0.5712): -0.00101 ± 0.000124 kcal/mol
- excess molar enthalpy ([1]; x1 = 0.6151): -0.000962 ± 0.000124 kcal/mol
- excess molar enthalpy ([1]; x1 = 0.7271): -0.000831 ± 0.000124 kcal/mol
- excess molar enthalpy ([1]; x1 = 0.7998): -0.000686 ± 0.000124 kcal/mol
- excess molar enthalpy ([1]; x1 = 0.8805): -0.000439 ± 0.000122 kcal/mol
- excess molar enthalpy ([1]; x1 = 0.9576): -0.000186 ± 0.00012 kcal/mol

SMILES: CCCC(=O)OC[C@H]1CO1 [R(-)-2,3-epoxypropyl butanoate]
- mass density [2]: 1036.3 ± 1 kg/m3

SMILES: CCCC(=O)OC[C@@H]1CO1 [S-(-)-glycidyl butyrate]
- mass density [2]: 1029.7 ± 0.9 kg/m3
